Results from patent publication US11046647B2, “Activators of the unfolded protein response” (The Board of Trustees of the University of Illinois, priority 2018, dated 2021).

Experiments:
MCF-7 = assay type: cell-based
Procedure: (§1) FIG. 36. Discovery of SERK-F6 (also known as, C(−)-105, (−)-105, (R)-105, (−)-1, or (R)-1), a compound that kills ERα-positive cancer cells, a, Chemical structures of BHPI and racemic compound 1 (i.e. (±)-1), and their cytotoxic activity on T47D breast cancer cells after 24-hour incubations with concentrations as indicated in nM. Cells were stained with annexin V-FITC and PI dyes prior to analysis via flow cytometry. […] Cells were incubated with SERK-F6 or positive control, Raptinal, for 24 hours and then stained with annexin V-FITC and PI dyes and analyzed via flow cytometry. Error bars represent S.E.M of 3 independent replicates. c, IC50 values of SERK-F6 after 24-hour incubation against a panel of cancer cell lines grouped by their reported ERα status. Cell viability was measured by Alamar blue fluorescence and set relative to a vehicle control and a quantitative dead control treated with Raptinal. Error bars represent S.E.M of 3 independent experiments. d, Crystal violet staining of T47D cells after 24-hour incubations with compounds and concentrations as indicated. Image is representative of 2 independent experiments. e,f, Long-term cell culture experiment with T47D, TDG, and TYS cells. Cells were incubated for 2 weeks with compounds (1 μM), followed by compound washout, and cells were cultured for 2 months. Cell number was determined by MTS. […]

MDA-MB-231 = assay type: cell-based
Procedure: as §1

[1] = test system: protein synthesis in Caov-3 cells; test: Protein synthesis inhibition (35S-methionine incorporation), Caov-3; assay type: cell-based, human; settings: 1,000 nM
Procedure: ERα positive Caov-3, human ovarian cancer cells, were treated for the indicated times with 1,000 nM BHPI or 1,000 nM (−)-105. Cells were briefly labeled with ^35S-methionine. Incorporation of labeled ^35S-methionine into protein was determined by trichloroacetic acid precipitation and trapping of precipitated protein, but not free amino acids, in small Whatman hardened ashless filters. After solubilizing the protein in the filters with base and neutralization with acid, the samples were counted in a liquid scintillation counter. Shown is the average (n≥3) percent inhibition of protein synthesis compared to the 0-time sample. The near quantitative inhibition of protein synthesis by (−)-105 is consistent with (−)-105 inducing lethal hyperactivation of the PERK arm of the UPR. Even non-growing cells are constantly degrading protein and making new proteins. Cells in which nearly all (>90%) of protein synthesis is inhibited cannot grow and will ultimately die.

MCF-7 tumors = test: MCF-7 orthotopic tumor model; assay type: in vivo, mouse
Procedure: FIG. 39. SERK-F6 eradicates wild-type ERα tumors via hyperactivation of aUPR. a, MCF-7 orthotopic tumors were established in Nu/J ovariectomized mice supplemented with a 60 day E2 pellet (0.36 mg) and grown to ˜400 mm^3 (28 days to establish), randomized, then treated with vehicle daily (n=3), vehicle weekly (n=3), fulv. weekly (5 mg/mouse, s.c., n=6), SERK-F6 daily (10 or 40 mg/kg p.o.). Vehicle arms were averaged. p values: *: p≤0.05, **: p≤0.01, ***: p≤0.001, ****: p≤0.0001. Tumor images were taken at the end of the study (day 21) and are representative of all tumors (n=6). b-e, MCF-7 cells were orthotopically bi-laterally grafted and tumors were grown until total tumor burden was ˜400 mm^3 prior to daily treatment with vehicle or SERK-F6 (40 mg/kg p.o.). Mice (n=5 per arm) were sacrificed after 3 days (b,c) and 7 days (d,e) and tumors harvested. […] Vinculin (Vin) was used as a loading control. […] Error bars represent S.E.M.
To probe the efficacy of SERK-F6 for killing ERα positive tumors, large MCF-7 tumors were grown and then intervened with therapy. […] The mice were then sacrificed prior to complete tumor eradication.

[2] = test system: MYS and MDG cells (MCF-7 with Y537S or D538G ERα) tumors; test: MYS-luc / MDG-luc orthotopic tumors; assay type: in vivo, mouse; settings: daily dosing
Excerpt: FIG. 41. […]
FIG. 43. SERK-F6-mediated eradication of MYS/MDG tumors is dependent on quantitative cell killing. a-b, MYS-luc. orthotopic tumors were established in NSG ovariectomized mice (no E2 pellet, ˜45 days to establish) and dosed daily as indicated (n=5-6), b, Treatment of MYS-luc, tumors were stopped after 21 daily doses of SERK-F6 and mice tumor burden was tracked via bioluminescence. […]

MDG-luc. cells = test: Metastatic model, MDG-luc cells injected into the tail-vein; assay type: in vivo, mouse; settings: daily dosing
Excerpt: FIG. 41. SERK-F6 eradicates mutant ERα primary and metastatic breast cancer. a-c, TYS-luc. orthotopic tumors were established in NSG ovariectomized mice (no E2 pellet, 60 days to establish) and dosed daily as indicated (n=5-6). b, representative examples of bioluminescence images of SERK-F6 treated mice (7 days). d,e, TDG-luc. orthotopic tumors were established in NSG ovariectomized mice (no E2 pellet, 120 days to establish) and dosed daily as indicated (n=4-5). e, Bioluminescence image of SERK-F6 treated mouse with TDG-luc. tumor burden after 7 days. f, MYS-luc. orthotopic tumors were established in NSG ovariectomized mice (no E2 pellet, 45 days to establish) and dosed daily as indicated (n=4-5). g, MDG-luc. orthotopic tumors were established in NSG ovariectomized mice (no E2 pellet, 45 days to establish) and dosed daily as indicated (n=4-5). h, Metastatic model with MDG-luc. cells injected into the tail-vein of NSG ovariectomized mice (no E2 pellet, 1.5 months to establish) and mice were dosed daily as indicated (n=4-5).

O=C1Nc2c(C(F)(F)F)cccc2C1(c1ccc(O)cc1)c1ccc(OC(F)(F)F)cc1 (single isomer, unassigned; (-)) [(−)-105, 3-(4-hydroxyphenyl)-3-(4-(trifluoromethoxy)phenyl)-7-(trifluoromethyl)indolin-2-one]
cytotoxicity (MCF-7): cytotoxic | cytotoxicity (MDA-MB-231): minimal effects | inhibition of the synthesis of new proteins [1]: near-quantitative | UPR markers in tumors (western blot) (MCF-7 tumors; 40 mg/kg p.o., 3 and 7 days): increases in P-PERK and P-eiF2alpha levels | murine weight during the study (MCF-7 tumors; daily treatment): did not lead to any change in murine weight | tumor response (MCF-7 tumors; large established MCF-7 tumors, SERK-F6 10 or 40 mg/kg p.o. daily, fulv. 5 mg/mouse s.c. weekly): dramatic tumor regressions | tumor response [2]: Dramatic tumor regressions were observed | metastatic tumor burden (MDG-luc. cells): eradicates metastatic tumor burden
